# Patent publication US9408891B2, “Methods of using gelsolin to treat or prevent bacterial sepsis” (priority 2003, dated 2016)
# “Also recorded” adds a separate entry of the source.
# Experiments:
# [1] = target: T1, gelsolin activity in whole human serum (Homo sapiens, UniProt P06396); experiment: Actin filament severing activity of whole human serum; format: biochemical; details: larger amounts needed than with pure gelsolin
# T1 construct: from tissue; host or cells: whole human serum (2.5 µl)
# Experimental: As shown, recombinant human gelsolin (rhGLS) (FIG. 4A) and blood serum (FIG. 4B) severing activity was measured in 0.4 μM pyrene-labeled F-actin samples (polymerized with 50% pyrene-labeled G-actin), after adding gelsolin (16 nM)/serum (2.5 μl), or their combination with one of the following: LPS (from different species), PIP2 (phosphatidyl-inositol-4,5-bisphosphate), LPA (lysophosphatidic acid), lipid A (the LPS derivative lacking polysaccharide) or PS (phosphatidylserine). The fluorescence intensity of F-pyrene actin was then monitored for 10 minutes, and the severing activity was calculated based on decreasing fluorescence. Severing activity was determined from a decrease in rate of fluorescence during depolymerization, and the depolymerization rate was calculated from the slope of the early decrease in fluorescence.
# [2] = target: T2, Gc-globulin (vitamin D-binding protein) (Homo sapiens, UniProt P02774); experiment: Actin-sequestering activity of Gc-globulin; format: biochemical; details: LPS at least up to 100 μM
# T2 sequence (P02774 17-474): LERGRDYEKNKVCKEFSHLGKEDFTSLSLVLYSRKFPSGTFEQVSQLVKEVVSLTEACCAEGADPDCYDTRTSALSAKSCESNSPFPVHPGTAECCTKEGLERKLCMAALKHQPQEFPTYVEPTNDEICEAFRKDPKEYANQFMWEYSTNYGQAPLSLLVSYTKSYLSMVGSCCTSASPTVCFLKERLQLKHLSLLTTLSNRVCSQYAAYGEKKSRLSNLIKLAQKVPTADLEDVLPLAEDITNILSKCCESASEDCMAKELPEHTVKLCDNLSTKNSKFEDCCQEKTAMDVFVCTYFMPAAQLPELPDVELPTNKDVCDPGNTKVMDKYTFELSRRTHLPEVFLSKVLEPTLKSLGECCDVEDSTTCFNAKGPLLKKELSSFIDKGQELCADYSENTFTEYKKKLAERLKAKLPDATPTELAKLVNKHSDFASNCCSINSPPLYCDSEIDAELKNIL
# [3] = tested on: human aortic endothelial cells (HAEC); experiment: LPS-induced actin cytoskeleton disassembly, phalloidin staining, endothelial cells; format: cell-based; details: LPS 10 μg/ml, 10 min
# Description: In light of the findings in the previous Examples, and using the materials prepared in above, the effect of the gelsolin binding by LPS was studied to determine the effect on cellular responses in vitro. Cell cultures of human aortic endothelial cells (HAEC) and rat primary astrocytes were used to evaluate the effect of LPS on actin. Both of these cell types have mCD14 (membrane bound C14) and TLR LPS receptors (Faure, et al., J. Biol. Chem. 275:11058-11063 (2000); Bsibsi, et al., J. Neuropathol. Exp. Neurol. 61:1013-1021 (2002); Bowman, et al., Glia 43:281-291 (2003)).
# HAECs (primary human aortic endothelial cells) (ATCC, Rockville, Md. or Clonetics, San Diego, Calif.), will grow to confluence through passages 5-9 in endothelial cell growth medium supplemented with 2% fetal bovine serum, 10 μg/liter human recombinant epidermal growth factor, 1 mg/liter hydrocortisone, 50 μg/ml gentamicin, 50 ng/ml amphotericin-B, in a 37° C. humidified atmosphere of 95% air:5% C02.
# HAECs and astrocytes cultures were incubated for 10 minutes in medium containing 10 μg/ml LPS alone, or LPS that had been pre-incubated with 0.16 mg/ml of human gelsolin. […] Location of transcription factor nuclear factor-kappaB (NF-κB) was observed using a monoclonal antibody to NF-κB (Molecular Probes), and cell nuclei were detected by counter-staining with 4′, 6-diamidino-2-phenylindole dihydrochloride (DAPI) (Sigma).
# [4] = tested on: NF-κB translocation in rat primary astrocytes; experiment: NF-κB translocation to the nucleus in astrocytes; format: cell-based; details: astrocytes, 2 hour; LPS 2 μM or TNF-α 10 ng/ml
# Experimental: Rat primary astrocytes were obtained from prenatal rats and maintained for 14 days in culture before use. Embryos (E17-E19) were removed by caesarian section from a Sprague-Dawley rat and the hippocampi were surgically removed. The tissue was digested in trypsin/DNAse at 37° C., centrifuged (1000×5 min) and filtered to derive suspensions from each pup. Cells were grown in an incubator at 37° C. and 5% CO2 in DMEM (Dulbecco's Modified Eagle's Medium; BioWhittaker/Cambrex BioScience, East Rutherford, N.J.), supplemented with Ham's F12 (Sigma-Aldrich, St. Louis, Mo.) and 5% fetal bovine serum (FBS) (Hyclone, Logan, Utah) for 7 days, followed by an additional 7 days in Neurobasal medium (Gibco, Grand Island, N.Y.) also supplemented with 5% FBS, 2 mM l-glutamine, 50 μg/ml streptomycin and 50 U/ml penicillin. In each experiment, the medium was changed to serum-free at 6-12 hours prior to addition of LPS, TNF-α, or gelsolin.
# HAECs and astrocytes cultures were incubated for 10 minutes in medium containing 10 μg/ml LPS alone, or LPS that had been pre-incubated with 0.16 mg/ml of human gelsolin. Cultures were fixed with ice-cold methanol and immunostained for F-actin with fluorescein isothiocyanate (FITC)-labeled phalloidin (Molecular Probes, Eugene, Oreg.). In astrocyte cultures, NF-κB translocation was manipulated by a 2 hour incubation in serum-free medium containing one of the following: 10 ng/ml TNF-α, 10 μg/ml LPS alone, or LPS that had been preincubated with 0.16 mg/ml human gelsolin. Location of transcription factor nuclear factor-kappaB (NF-κB) was observed using a monoclonal antibody to NF-κB (Molecular Probes), and cell nuclei were detected by counter-staining with 4′, 6-diamidino-2-phenylindole dihydrochloride (DAPI) (Sigma).
# [5] = Neutron scattering of LPS with gelsolin peptide; format: physicochemical; details: preliminary neutron scattering, cylindrical structure
# Description: The molecular structure of LPS and its complexes with proteins can be measured at nm resolution by X-ray and neutron scattering, as well as by electron and atomic force microscopy.
# At present, the calculated diameter (36 nm) is greater than that which has been previously reported for pure LPS micelles, and the difference in size may reflect another structural feature. In additional experiments with more variations in gelsolin/LPS or peptide, LPS ratios will reveal if there are significant changes in LPS particle structure when these peptides bind LPS.
# T1 sequence (P06396 28-782): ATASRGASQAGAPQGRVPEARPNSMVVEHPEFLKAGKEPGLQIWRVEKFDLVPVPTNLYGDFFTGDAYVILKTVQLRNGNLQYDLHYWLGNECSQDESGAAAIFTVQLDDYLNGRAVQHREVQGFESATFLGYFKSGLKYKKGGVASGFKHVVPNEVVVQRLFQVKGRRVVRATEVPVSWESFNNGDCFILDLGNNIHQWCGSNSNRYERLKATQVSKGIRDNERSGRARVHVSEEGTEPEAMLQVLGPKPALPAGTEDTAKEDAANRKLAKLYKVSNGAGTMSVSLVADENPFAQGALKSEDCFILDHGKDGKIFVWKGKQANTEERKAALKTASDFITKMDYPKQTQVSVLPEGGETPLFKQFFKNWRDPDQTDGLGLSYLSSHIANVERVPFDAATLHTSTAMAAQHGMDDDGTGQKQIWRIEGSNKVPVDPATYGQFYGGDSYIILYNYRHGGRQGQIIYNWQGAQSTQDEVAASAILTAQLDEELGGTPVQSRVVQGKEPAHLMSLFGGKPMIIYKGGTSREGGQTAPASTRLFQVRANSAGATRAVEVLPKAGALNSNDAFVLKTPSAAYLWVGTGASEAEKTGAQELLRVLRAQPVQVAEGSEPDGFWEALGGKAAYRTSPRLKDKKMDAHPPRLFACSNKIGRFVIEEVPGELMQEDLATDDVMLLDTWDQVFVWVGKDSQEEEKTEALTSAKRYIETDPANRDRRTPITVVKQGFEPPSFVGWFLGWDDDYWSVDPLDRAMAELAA
substance,measurement,setting,value
lipopolysaccharide [LPS],inhibition of gelsolin activity in whole human serum,[1],able to inhibit gelsolin activity; also recorded: inhibitory efficiency varies with the bacterial species
same,effect on actin-sequestering activity of Gc-globulin,[2],unaffected
same,effect of LPS alone on actin cytoskeleton,[3],rapidly induced the disassembly of the actin cytoskeleton; also recorded: disassembly of the actin cytoskeleton was readily induced; also recorded: rapidly induced disassembly of the actin cytoskeleton
same,induction of NF-κB translocation to the nucleus,[4],caused NF-κB translocation to the nucleoplasm; also recorded: resulted in its translocation to the nucleoplasm
same,calculated diameter,[5],36 nm
